Experimental data from patent publication US11503829B2, “Pesticidal compositions and related methods” (CJB Applied Technologies, LLC, priority 2020, dated 2022).
Like-named read-outs stand apart in the source and are kept apart here.

Key:
[1] = tested on: Didymella fungus that is resistant to azoxystrobin; experiment: Petri dish radial growth bioassay, agar impregnated with Quadris and/or benzyl alcohol; type: cell-based
[2] = tested on: natural population of lowland brush; experiment: Woody brush control with Metsulfuron Methyl; details: MSM 1/5 oz/gal, no adjuvant; scale 1-5
[3] = tested on: black rust (Puccinia graminis tritici); type: in vivo; details: wheat, tebuconazole 2 fl oz/acre, no adjuvant, 21 days after treatment
[4] = Quadris 0 oz/ac, Benzyl Alcohol 6 oz/ac

OCc1ccccc1 [Benzyl Alcohol only, benzyl alcohol]
Radial growth, 24 Hours [1, 4]: 4.83 | Radial growth, 48 Hours [1, 4]: 8.42 | Radial growth, 72 Hours [1, 4]: 8.7 | Radial growth, 96 Hours [1, 4]: 13.98 | Radial growth, 120 Hours [1, 4]: 18.72 | Radial growth, 144 Hours [1, 4]: 25.05 | Reduction in fungal growth (observation) ([1]; benzyl alcohol alone, petri dish): no reduction in fungal growth

COC(=O)c1ccccc1S(=O)(=O)NC(=O)Nc1nc(C)nc(OC)n1 [MSM Alone]
Observation at 28 DAT [2]: 2.0

CC(C)(C)C(O)(CCc1ccc(Cl)cc1)Cn1cncn1 (stereo not shown) [Teb only, tebuconazole]
Disease Severity Rating ([3]; mix water 35° F.): 51.3 | Disease Severity Rating ([3]; mix water 70° F.): 47
